{"source": "patent US10660318B2", "about": "“Non-mammalian RAS transgenic animal model” (Tosk, Inc., priority 2013, dated 2020)", "system": "mutated kRAS/kRAS x MS1096 fly (human kRAS G12V expressed in the wing)", "test": "Screening for drugs that reverse the wing phenotype of the mutated kRAS/kRAS x MS1096 fly", "type": "in vivo, Drosophila", "conditions": "for rescue from the crumpled/kringled wing phenotype: 10 μM test article in fly food, embryos to adults, 25° C., 14 days, FIG. 8", "protocol": "Male mutated kRAS/kRAS flies were bred overnight with female MS1096/GAL4 flies in a fly condo^2 with a grape agar plate floor. The resulting embryos were gently dislodged from the grape agar plate using a squirt bottle containing 0.7% NaCl, 0.03% Triton X-100 In distilled water. The embryos were counted and then dissolved in a solution containing 14.4% sucrose, 0.7% NaCl and 0.05% Triton to give a concentration of 15 embryos/10 μL of solution. ^2 Sullivan W, Ashburner M, Hawley, S R, Drosophila Protocols 2000, Cold Spring Harbor Laboratory Press, pp 541-551.\nThe test article, 1-benzyl-2-phenyl-1H-benzo[d]imidazole which is a deltarasin analog with activity againsy RAS signaling,^1 was dissolved in DMSO to give a concentration of 10 mM. The deltarasin analog inhibitor was synthesized at the Tosk facility. Four μL of this solution, 100 μL of the embryo solution (150 embryos), ½ teaspoon blue fly food (North Carolina, catalogue number 173216) and 4 ml of water were combined in a vial (VWR, catalogue number 89092-720) and capped (VWR, catalogue number 89168-886). Using the recipe provided above, the final concentration of test article in the mixture was 10 μM.\nThe vials were placed in a 25° C. incubator for 14 days after which they. were examined for the percentage of flies with crumpled/kringled wings. […] The goal for screening chemicals for anti-kRAS activity is to achieve in the kRAS mutant fly the rescue from the crumpled/kringled wing phenotype achieved with the deltarasin analog.", "key": {"[1]": {"conditions": "flies rescued by treatment with a test article, compared with control and kRAS mutant flies"}}, "data": [{"smiles": "c1ccc(Cn2c(-c3ccccc3)nc3ccccc32)cc1", "note": "[test article, 1-benzyl-2-phenyl-1H-benzo[d]imidazole]", "values": [{"measurement": "rescue from the crumpled/kringled wing phenotype", "result": "significantly less crumpled/kringled although still non-functional"}, {"measurement": "rescue from the crumpled/kringled wing phenotype", "setting": "listed as deltarasin analog", "result": "rescued"}, {"measurement": "typical appearance of wings: vein-free region (Rescued)", "setting": "compared with the same regions in kRAS mutant flies", "result": "Vein-free region is considerably"}, {"measurement": "ability to take flight (Rescued)", "setting": "[1]", "result": "Unable to take flight"}, {"measurement": "typical appearance of wings: position relative to fly body in idle state (Rescued)", "setting": "[1]", "result": "Wings tend to be parallel to the fly"}, {"measurement": "typical appearance of wings: size and shape (Rescued)", "setting": "[1]", "result": "Medium, semi-flat and less crinkled"}, {"measurement": "typical appearance of wings: transparency (Rescued)", "setting": "[1]", "result": "Slightly translucent wings"}, {"measurement": "typical appearance of wings: wing veins (Rescued)", "setting": "[1]", "result": "Slightly aberrant wing “veins.”"}]}]}
